Reference: patent US12077503B2, “Substituted cyclic amides and their use as herbicides” (FMC CORPORATION, priority 2015, dated 2024)

How the values were obtained:
Assay type in all cases: in vivo
[1] = test system: ragweed (common ragweed, Ambrosia elatior); assay: Test A postemergence; details: postemergence; for Ragweed plant response rating: 125 g ai/ha, visual injury rating on 0 to 100 scale (0 no effect, 100 complete control), approx. 10 d; for Plant response rating, Ragweed: 500 g ai/ha, 0 to 100 scale, 0 no effect, 100 complete control
Summary of the method: (§1)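 Seeded soil received test chemicals as a preemergence directed spray, and seedlings at one to two leaves, 2–10 cm tall, received them postemergence, in a non-phytotoxic, surfactant-containing solvent mixture. Pots were held in a greenhouse for approximately 10 d, then rated for injury from 0, no effect, to 100, complete control.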

[2] = test system: wheat (Triticum aestivum); assay: Test A postemergence; details: postemergence; for Wheat plant response rating: 125 g ai/ha, visual injury rating on 0 to 100 scale (0 no effect, 100 complete control), approx. 10 d; for Plant response rating, Wheat: 500 g ai/ha, 0 to 100 scale, 0 no effect, 100 complete control
Summary of the method: as §1

[3] = test system: barnyardgrass (Echinochloa crus-galli); assay: Test A postemergence; details: postemergence; for Barnyardgrass plant response rating: 125 g ai/ha, visual injury rating on 0 to 100 scale (0 no effect, 100 complete control), approx. 10 d; for Plant response rating, Barnyardgrass: 500 g ai/ha, 0 to 100 scale, 0 no effect, 100 complete control
Summary of the method: as §1

[4] = test system: blackgrass (Alopecurus myosuroides); assay: Test A postemergence; details: postemergence; for Blackgrass plant response rating: 125 g ai/ha, visual injury rating on 0 to 100 scale (0 no effect, 100 complete control), approx. 10 d; for Plant response rating, Blackgrass: 500 g ai/ha, 0 to 100 scale, 0 no effect, 100 complete control
Summary of the method: as §1

[5] = test system: Galium (catchweed bedstraw, Galium aparine); assay: Test A postemergence; details: postemergence; for Galium plant response rating: 125 g ai/ha, visual injury rating on 0 to 100 scale (0 no effect, 100 complete control), approx. 10 d; for Plant response rating, Galium: 500 g ai/ha, 0 to 100 scale, 0 no effect, 100 complete control
Summary of the method: as §1

[6] = test system: pigweed (Amaranthus retroflexus); assay: Test A postemergence; details: postemergence; for Pigweed plant response rating: 125 g ai/ha, visual injury rating on 0 to 100 scale (0 no effect, 100 complete control), approx. 10 d; for Plant response rating, Pigweed: 500 g ai/ha, 0 to 100 scale, 0 no effect, 100 complete control
Summary of the method: as §1

corn (Zea mays) = assay: Test A postemergence; details: postemergence; for Corn plant response rating: 125 g ai/ha, visual injury rating on 0 to 100 scale (0 no effect, 100 complete control), approx. 10 d; for Plant response rating, Corn: 500 g ai/ha, 0 to 100 scale, 0 no effect, 100 complete control
Summary of the method: as §1

[7] = test system: giant foxtail (Setaria faberii); assay: Test A postemergence; details: postemergence; for Foxtail, Giant plant response rating: 125 g ai/ha, visual injury rating on 0 to 100 scale (0 no effect, 100 complete control), approx. 10 d; for Plant response rating, Foxtail, Giant: 500 g ai/ha, 0 to 100 scale, 0 no effect, 100 complete control
Summary of the method: as §1

Kochia (Kochia scoparia) [8] = assay: Test A postemergence; details: postemergence; for Kochia plant response rating: 125 g ai/ha, visual injury rating on 0 to 100 scale (0 no effect, 100 complete control), approx. 10 d; for Plant response rating, Kochia: 500 g ai/ha, 0 to 100 scale, 0 no effect, 100 complete control
Summary of the method: as §1

[9] = test system: ryegrass, Italian (Italian ryegrass, Lolium multiflorum); assay: Test A postemergence; details: postemergence; for Ryegrass, Italian plant response rating: 125 g ai/ha, visual injury rating on 0 to 100 scale (0 no effect, 100 complete control), approx. 10 d; for Plant response rating, Ryegrass, Italian: 500 g ai/ha, 0 to 100 scale, 0 no effect, 100 complete control
Summary of the method: as §1

[10] = test system: ducksalad (Heteranthera limosa); assay: Test B flooded paddy test; details: Flood, 500 g ai/ha; 0 to 100 scale where 0 is no effect and 100 is complete control; 13 to 15 d
Summary of the method: (§2)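 2-leaf plants; pots flooded 3 cm over soil; cpd added to paddy water; depth held; greenhouse 13–15 d; visual rating vs controls, 0 = no effect, 100 = complete control.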

[11] = test system: sedge, umbrella (small-flower umbrella sedge, Cyperus difformis); assay: Test B flooded paddy test; details: Flood, 500 g ai/ha; 0 to 100 scale where 0 is no effect and 100 is complete control; 13 to 15 d
Summary of the method: as §2

[12] = test system: barnyardgrass (Echinochloa crus-galli); assay: Test B flooded paddy test; details: Flood, 500 g ai/ha; 0 to 100 scale where 0 is no effect and 100 is complete control; 13 to 15 d
Summary of the method: as §2

rice (Oryra sativa) = assay: Test B flooded paddy test; details: Flood, 500 g ai/ha; 0 to 100 scale where 0 is no effect and 100 is complete control; 13 to 15 d
Summary of the method: as §2

[13] = test system: ragweed (common ragweed, Ambrosia elatior); assay: Test A preemergence; details: for Plant response rating, Ragweed: 125 g ai/ha, preemergence, 0 to 100 scale (0 no effect, 100 complete control); for Ragweed plant response rating (0 to 100 scale, 0 is no effect, 100 is complete control): Preemergence, 500 g ai/ha, visual injury approx. 10 d
Summary of the method: as §1

[14] = test system: barnyardgrass (Echinochloa crus-galli); assay: Test A preemergence; details: for Plant response rating, Barnyardgrass: 125 g ai/ha, preemergence, 0 to 100 scale (0 no effect, 100 complete control); for Barnyardgrass plant response rating (0 to 100 scale, 0 is no effect, 100 is complete control): Preemergence, 500 g ai/ha, visual injury approx. 10 d
Summary of the method: as §1

[15] = test system: pigweed (Amaranthus retroflexus); assay: Test A preemergence; details: for Plant response rating, Pigweed: 125 g ai/ha, preemergence, 0 to 100 scale (0 no effect, 100 complete control); for Pigweed plant response rating (0 to 100 scale, 0 is no effect, 100 is complete control): Preemergence, 500 g ai/ha, visual injury approx. 10 d
[16] = test system: giant foxtail (Setaria faberii); assay: Test A preemergence; details: for Plant response rating, Foxtail, Giant: 125 g ai/ha, preemergence, 0 to 100 scale (0 no effect, 100 complete control); for Foxtail, Giant plant response rating (0 to 100 scale, 0 is no effect, 100 is complete control): Preemergence, 500 g ai/ha, visual injury approx. 10 d
Summary of the method: as §1

Kochia (Kochia scoparia) [17] = assay: Test A preemergence; details: for Plant response rating, Kochia: 125 g ai/ha, preemergence, 0 to 100 scale (0 no effect, 100 complete control); for Kochia plant response rating (0 to 100 scale, 0 is no effect, 100 is complete control): Preemergence, 500 g ai/ha, visual injury approx. 10 d
Summary of the method: as §1

[18] = test system: ryegrass, Italian (Italian ryegrass, Lolium multiflorum); assay: Test A preemergence; details: for Plant response rating, Ryegrass, Italian: 125 g ai/ha, preemergence, 0 to 100 scale (0 no effect, 100 complete control); for Ryegrass, Italian plant response rating (0 to 100 scale, 0 is no effect, 100 is complete control): Preemergence, 500 g ai/ha, visual injury approx. 10 d
Summary of the method: as §1

Row | Compound | Ragweed plant response rating [1] | Plant response rating, Ragweed [1] | Wheat plant response rating [2] | Plant response rating, Wheat [2] | Barnyardgrass plant response rating [3] | Plant response rating, Barnyardgrass [3] | Blackgrass plant response rating [4] | Plant response rating, Blackgrass [4] | Galium plant response rating [5] | Plant response rating, Galium [5] | Pigweed plant response rating [6] | Plant response rating, Pigweed [6] | Corn plant response rating (corn (Zea mays)) | Plant response rating, Corn (corn (Zea mays)) | Foxtail, Giant plant response rating [7] | Plant response rating, Foxtail, Giant [7] | Kochia plant response rating (Kochia (Kochia scoparia) [8]) | Plant response rating, Kochia (Kochia (Kochia scoparia) [8]) | Ryegrass, Italian plant response rating [9] | Plant response rating, Ryegrass, Italian [9] | also measured
1 | O=C1NCC(c2ccc(F)c(F)c2)C1C(=O)Nc1ccc(F)cc1Cl (stereo not drawn) [Compound 411] | 0 | 0 | 0 | 0 | 40 | 70 | 0 | 0 | 30 | 50 | 0 | 0 | 0 | 0 | 40 | 80 | 0 | 0 | 0 | 0 | Plant response rating, Ducksalad [10]: 98; Plant response rating, Sedge, Umbrella [11]: 0; Plant response rating, Barnyardgrass [12]: 20; Plant response rating, Rice (rice (Oryra sativa)): 0; Plant response rating, Ragweed [13]: 0; Ragweed plant response rating (0 to 100 scale, 0 is no effect, 100 is complete control) [13]: 0; Plant response rating, Barnyardgrass [14]: 70; Barnyardgrass plant response rating (0 to 100 scale, 0 is no effect, 100 is complete control) [14]: 80; Plant response rating, Pigweed [15]: 0; Pigweed plant response rating (0 to 100 scale, 0 is no effect, 100 is complete control) [15]: 10; Plant response rating, Foxtail, Giant [16]: 80; Foxtail, Giant plant response rating (0 to 100 scale, 0 is no effect, 100 is complete control) [16]: 90; Plant response rating, Kochia (Kochia (Kochia scoparia) [17]): 0; Kochia plant response rating (0 to 100 scale, 0 is no effect, 100 is complete control) (Kochia (Kochia scoparia) [17]): 0; Plant response rating, Ryegrass, Italian [18]: 0; Ryegrass, Italian plant response rating (0 to 100 scale, 0 is no effect, 100 is complete control) [18]: 0
2 | Cc1cc(NC(=O)C2C(=O)NCC2c2ccc(F)c(F)c2)ccc1F (stereo not drawn) [Compound 412] | 0 | 0 | 0 | 0 | 0 | 0 | 0 | 0 | 0 | 0 | 0 | 0 | 0 | 0 | 0 | 0 | 0 | 0 | 0 | 0 | Plant response rating, Ducksalad [10]: 30; Plant response rating, Sedge, Umbrella [11]: 0; Plant response rating, Barnyardgrass [12]: 0; Plant response rating, Rice (rice (Oryra sativa)): 0; Plant response rating, Ragweed [13]: 0; Ragweed plant response rating (0 to 100 scale, 0 is no effect, 100 is complete control) [13]: 0; Plant response rating, Barnyardgrass [14]: 40; Barnyardgrass plant response rating (0 to 100 scale, 0 is no effect, 100 is complete control) [14]: 70; Plant response rating, Pigweed [15]: 0; Pigweed plant response rating (0 to 100 scale, 0 is no effect, 100 is complete control) [15]: 0; Plant response rating, Foxtail, Giant [16]: 60; Foxtail, Giant plant response rating (0 to 100 scale, 0 is no effect, 100 is complete control) [16]: 70; Plant response rating, Kochia (Kochia (Kochia scoparia) [17]): 0; Kochia plant response rating (0 to 100 scale, 0 is no effect, 100 is complete control) (Kochia (Kochia scoparia) [17]): 0; Plant response rating, Ryegrass, Italian [18]: 0; Ryegrass, Italian plant response rating (0 to 100 scale, 0 is no effect, 100 is complete control) [18]: 0
3 | COc1ccc(NC(=O)C2C(=O)NCC2c2ccc(F)c(F)c2)cc1F (stereo not drawn) [Compound 415] | 0 | 0 | 0 | 0 | 0 | 0 | 0 | 0 | 0 | 0 | 0 | 0 | 0 | 0 | 0 | 0 | 0 | 0 | 0 | 0 | Plant response rating, Ducksalad [10]: 0; Plant response rating, Sedge, Umbrella [11]: 0; Plant response rating, Barnyardgrass [12]: 0; Plant response rating, Rice (rice (Oryra sativa)): 0; Plant response rating, Ragweed [13]: 0; Ragweed plant response rating (0 to 100 scale, 0 is no effect, 100 is complete control) [13]: 0; Plant response rating, Barnyardgrass [14]: 0; Barnyardgrass plant response rating (0 to 100 scale, 0 is no effect, 100 is complete control) [14]: 0; Plant response rating, Pigweed [15]: 0; Pigweed plant response rating (0 to 100 scale, 0 is no effect, 100 is complete control) [15]: 0; Plant response rating, Foxtail, Giant [16]: 0; Foxtail, Giant plant response rating (0 to 100 scale, 0 is no effect, 100 is complete control) [16]: 0; Plant response rating, Kochia (Kochia (Kochia scoparia) [17]): 0; Kochia plant response rating (0 to 100 scale, 0 is no effect, 100 is complete control) (Kochia (Kochia scoparia) [17]): 0; Plant response rating, Ryegrass, Italian [18]: 0; Ryegrass, Italian plant response rating (0 to 100 scale, 0 is no effect, 100 is complete control) [18]: 0
